In ChEMBL document CHEMBL1151239, “New glycosides of the fungus Acremonium striatisporum isolated from a sea cucumber” (J Nat Prod, 2004):
pIC50: −log10 of the molar value.

Key:
[1] = Cytotoxicity against sea urchin egg; format: functional, Strongylocentrotus intermedius
[2] = Cytotoxicity against mouse EAC; format: functional, cell-based; conditions: Ehrlich

Row | Structure (SMILES) | pIC50 [1] | pIC50 [2]
1 | C=C[C@]1(C)C=C2C(=O)C[C@@H]3[C@](C)(CCC(=O)[C@]3(C)CO[C@@H]3O[C@H](CO)[C@@H](O)[C@@H](O)[C@@H]3O)[C@H]2CC1 | 4.00 | 4.60
2 | C=C[C@]1(C)C=C2[C@H](O)C[C@@H]3[C@](C)(CCC(=O)[C@]3(C)CO[C@@H]3O[C@H](CO)[C@@H](O)[C@@H](O)[C@@H]3O)[C@H]2CC1 | 4.00 | 4.60
3 | C=C[C@@]1(C)CCC2=C(C1)C(=O)C[C@H]1[C@@](C)(CO[C@@H]3O[C@H](CO)[C@@H](O)[C@@H](O)[C@@H]3O)C(=O)CC[C@]21C | 4.00 | 4.60
4 | C=C[C@@]1(C)CC[C@H]2C(=CC[C@@H]3[C@]2(C)C[C@@H](O)[C@H](O)[C@]3(C)CO[C@@H]2O[C@H](CO[C@H]3O[C@H](CO)[C@@H](O)[C@H](O)[C@H]3O)[C@@H](O)[C@@H](O)[C@@H]2O)C1 [VIRESCENOSIDE R] | 4.00 | 4.60
